From patent publication US6706683B1, “Method for controlling the release of granules” (Asahi Kasei Pharma Corporation, priority 1998, dated 2004) come the findings set out here.

Test [1] relates to neutrophils. Put plainly: Screening of samples in calgranulin-stimulated elastase secretion from permeabilized neutrophils (Example 3). The class given is cell-based, human. The settings on record: sample 30 μM; for Amount of secretion (%): elastase, control without sample = 100%, calcium chloride 1 μM plus calgranulin (type and concentration not given); for effect on elastase (granule) secretion from neutrophils, in words: calgranulin A activated system.

Test [2] has as its system human neutrophils. Put plainly: Lactoferrin secretion from permeabilized human neutrophils on addition of calgranulin and calcium chloride, ELISA (Example 2). The class given is cell-based. The settings on record: 3 μM calgranulin, 1 μM calcium chloride, digitonin-permeabilized neutrophils, 37° C. 5 minutes. The method, then: A neutrophil suspension was prepared from blood collected from human vein according to the method described in Biological Chemistry Experiment Lecture, second series, No. 8, Blood, Vol. 2, 679-685). The neutrophil suspension was adjusted to a concentration of 1×10^7 cells/ml using PB in a plastic test tube and incubated at 37° C. for 10 minutes. Digitonin (Sigma company) was added to the neutrophil suspension to a final concentration of 5 μg/ml and the mixture was incubated at 37° C. for 15 minutes.
The neutrophil suspension was centrifuged at 1200 rpm for 5 minutes. After supernatant was discarded, precipitated neutrophils were re-suspended in PB to prepare a permeabilized neutrophil suspension (cell concentration: 1×10^7 cells/ml). The permeabilized neutrophil suspension was added to a 96-well immunoplate, 200 μl per well, and incubated at 37° C. for 15 minutes. Next, an aqueous solution of calcium chloride (final concentration: 1 μM) and calgranulin A, calgranulin B, or a equimolar mixture of calgranulin A and calgranulin B (each to a final concentration of 0 μM, 0.3 μM, 1 μM, or 3 μM) were added, and the resulting mixtures were incubated at 37° C. for 5 minutes. The 96-well immunoplate was centrifuged at 1200 rpm for one minute at 4° C. ELISA-kit (OXIS Co.) was used for the determination of lactoferrin. […]
(In general: An ELISA detects its analyte on a solid surface through an enzyme-linked reagent.)

The test system of test [3] is human neutrophils. The test can be described thus: Elastase secretion from permeabilized human neutrophils on addition of calgranulin and calcium chloride (Example 1). In kind it is cell-based. The settings on record: 3 μM calgranulin, 1 μM calcium chloride, digitonin-permeabilized neutrophils, 37° C. 5 minutes. The method, then: A neutrophil suspension was prepared from blood collected from human vein according to the method described in Biological Chemistry Experiment Lecture, second series, No. 8, Blood, Vol. 2, 679-685). The neutrophil suspension was adjusted to a concentration of 1×10^7 cells/ml in a plastic test tube using a permeabilized buffer (PB) (30 mM HEPES, 100 mM KCl, 20 mM NaCl, 1 mM EGTA, pH 7.0) and incubated at 37° C. for 10 minutes. Digitonin (Sigma company) was added to the neutrophil suspension to a final concentration of 5-7.5 μg/ml and the mixture was incubated at, 37° C. for 15 minutes. The neutrophil suspension was centrifuged at 1200 rpm for 5 minutes. After discarding supernatant, precipitated neutrophils were re-suspended in PB to prepare a permeabilized neutrophil suspension (cell concentration: 1×10^7/ml).
The permeabilized neutrophil suspension was added to a 96-well immunoplate, 200 μl per well, and incubated for at 37° C. 15 minutes. […]
The 96-well immunoplate was centrifuged at 1200 rpm for one minute at 4° C. using a centrifugation container for immunoplates. […] Then, absorbance at 405 nm was measured using a microplate reader.

With `COc1ccc(CN(CCCCCCCN2CCNCC2)c2ccc(OC)cc2)cc1.Cl.Cl.Cl` [Compound 1, N-(4-methoxybenzyl)-N-(4-methoxyphenyl)-7-piperazinylheptyl amine trihydrochloride], in test [1], the “Amount of secretion (%)” value was 61% and the “effect on elastase (granule) secretion from neutrophils, in words” value (from here on “effect on elastase (granule) secretion”) is on record as “remarkably controlled granule secretion”.
Turning to `COc1ccc(N(CCCCCCCN2CCNCC2)Cc2ccccc2)cc1.Cl.Cl.Cl` [Compound 2, N-benzyl-N-(4-methoxyphenyl)-7-piperazinylheptylamine trihydrochloride], in test [1], the “Amount of secretion (%)” value is listed as 51% and the “effect on elastase (granule) secretion” value was “remarkably controlled granule secretion”.
Consider `CCCCCCC(CC)=C(c1ccc(O)cc1)c1ccc(O)cc1` [Compound 3, 1,1-(di-4-hydroxyphenyl)-2-ethyl-1-octaene], for which, in test [1], the “Amount of secretion (%)” value is given as 151% and the “effect on elastase (granule) secretion” value is on record as “remarkably increased the amount of secretion”.

B1: calgranulin B: calcium-binding protein with a molecular weight of about 14 kD; SEQ ID NOS 2 and 4 (protein, listed as Homo sapiens)
chain: MTCKMSQLERNIETIINTFHQYSVKLGHPDTLNQGEFKELVRKDLQNFLKKENKNEKVIEHIMEDLDTNADKQLSFEEFIMLMARLTWASHEKMHEGDEGPGHHHKPGLGEGTP
Consider B1, for which the “amount of lactoferrin secretion, assuming secretion in the absence of calgranulin is 1” value in test [2] is “about five”. Also, in test [3], the “amount of elastase secretion, assuming secretion in the absence of calgranulin is 1” value was “about seven”.

B2: calgranulin A: calcium-binding protein with a molecular weight of about 8 kD; SEQ ID NOS 1 and 3 (protein, listed as Homo sapiens)
chain: MLTELEKALNSIIDVYHKYSLIKGNFHAVYRDDLKKLLETECPQYIRKKGADVWFKELDINTDGAVNFQEFLILVIKMGVAAHKKSHEESHKE
In the case of B2, in test [2], the “amount of lactoferrin secretion, assuming secretion in the absence of calgranulin is 1” value is listed as “about six”. Moreover, the “amount of elastase secretion, assuming secretion in the absence of calgranulin is 1” value in test [3] is given as “about eight”.
